Measured values taken from the NIST ThermoML archive (doi:10.1021/je700350b).

Assay: xn = mol fraction of the nth substance listed
Settings: for viscosity: 101.33 kPa; for viscosity / binary diffusion coefficient: Liquid; for surface tension liquid-gas: Ring tensiometer; for binary diffusion coefficient: 101 kPa, Taylor dispersion method

CCN(CC)CCO [(diethylamino)ethanol] + O
Settings | binary diffusion coefficient [m2/s] | surface tension liquid-gas [mN/m] | viscosity [mPa·s]
298.15 K, x1 = 0.1483 | – | – | 8.96
298.15 K, x1 = 0.1603 | – | – | 9.677
298.15 K, x1 = 0.1704 | – | – | 10.26
298.15 K, x1 = 0.1905 | – | – | 11.31
298.15 K, x1 = 0.2004 | – | – | 11.76
298.15 K, x1 = 0.2104 | – | – | 12.22
298.15 K, x1 = 0.22 | – | – | 12.66
298.15 K, x1 = 0.2301 | – | – | 13.04
298.15 K, x1 = 0.2401 | – | – | 13.42
298.15 K, x1 = 0.253 | – | – | 13.84
298.15 K, x1 = 0.2674 | – | – | 14.24
298.15 K, x1 = 0.2701 | – | – | 14.25
298.15 K, x1 = 0.2801 | – | – | 14.55
298.15 K, x1 = 0.29 | – | – | 14.76
298.15 K, x1 = 0.3022 | – | – | 14.98
298.15 K, x1 = 0.35 | – | – | 15.43
298.15 K, x1 = 0.3999 | – | – | 14.98
298.15 K, x1 = 0.4507 | – | – | 14.58
298.15 K, x1 = 0.5001 | – | – | 13.45
298.15 K, x1 = 0.5504 | – | – | 12.29
298.15 K, x1 = 0.6001 | – | – | 10.96
298.15 K, x1 = 0.6514 | – | – | 9.672
298.15 K, x1 = 0.7 | – | – | 8.576
298.15 K, x1 = 0.7508 | – | – | 7.471
298.15 K, x1 = 0.8001 | – | – | 6.597
298.15 K, x1 = 0.8508 | – | – | 5.743
298.15 K, x1 = 0.9001 | – | – | 5.063
298.15 K, x1 = 0.9501 | – | – | 4.494
298.15 K, x1 = 1 | – | – | 4.01
303.15 K, x1 = 0.00104 | – | 60.06 | –
303.15 K, x1 = 0.00111 | – | 59.95 | –
303.15 K, x1 = 0.0013 | – | 59.24 | –
303.15 K, x1 = 0.00278 | 7.11e-10 | – | –
303.15 K, x1 = 0.00336 | – | 51.86 | –
303.15 K, x1 = 0.00503 | – | 50.47 | –
303.15 K, x1 = 0.00524 | 6.5e-10 | – | –
303.15 K, x1 = 0.00679 | – | 46.5 | –
303.15 K, x1 = 0.00781 | 6.39e-10 | – | –
303.15 K, x1 = 0.01005 | – | – | 1.062
303.15 K, x1 = 0.01032 | 5.82e-10 | – | –
303.15 K, x1 = 0.01281 | 5.63e-10 | – | –
303.15 K, x1 = 0.01536 | 5.39e-10 | – | –
303.15 K, x1 = 0.01779 | 4.82e-10 | – | –
303.15 K, x1 = 0.02016 | – | – | 1.333
303.15 K, x1 = 0.02026 | 4.54e-10 | – | –
303.15 K, x1 = 0.02372 | – | 39.92 | –
303.15 K, x1 = 0.02731 | 4.06e-10 | – | –
303.15 K, x1 = 0.0382 | 3.14e-10 | – | –
303.15 K, x1 = 0.03976 | – | – | 2.025
303.15 K, x1 = 0.03998 | – | 35.96 | –
303.15 K, x1 = 0.05015 | – | – | 2.464
303.15 K, x1 = 0.05024 | 2.55e-10 | – | –
303.15 K, x1 = 0.06011 | – | 34.47 | –
303.15 K, x1 = 0.06028 | – | – | 2.899
303.15 K, x1 = 0.07004 | – | – | 3.354
303.15 K, x1 = 0.07276 | – | 33.87 | –
303.15 K, x1 = 0.07362 | 1.77e-10 | – | –
303.15 K, x1 = 0.08051 | – | – | 3.86
303.15 K, x1 = 0.08982 | – | – | 4.289
303.15 K, x1 = 0.09846 | 1.53e-10 | – | –
303.15 K, x1 = 0.11 | – | – | 5.269
303.15 K, x1 = 0.12 | – | – | 5.728
303.15 K, x1 = 0.1247 | 1.37e-10 | – | –
303.15 K, x1 = 0.1253 | – | 32.48 | –
303.15 K, x1 = 0.1301 | – | – | 6.216
303.15 K, x1 = 0.1401 | – | – | 6.673
303.15 K, x1 = 0.1476 | 1.29e-10 | – | –
303.15 K, x1 = 0.1511 | – | – | 7.151
303.15 K, x1 = 0.1603 | – | – | 7.537
303.15 K, x1 = 0.1704 | – | – | 7.965
303.15 K, x1 = 0.1749 | – | 30.78 | –
303.15 K, x1 = 0.1801 | 1.32e-10 | – | –
303.15 K, x1 = 0.1897 | – | – | 8.687
303.15 K, x1 = 0.1998 | – | – | 9.003
303.15 K, x1 = 0.2104 | – | – | 9.393
303.15 K, x1 = 0.22 | – | – | 9.709
303.15 K, x1 = 0.2301 | – | – | 9.979
303.15 K, x1 = 0.2401 | – | – | 10.26
303.15 K, x1 = 0.2498 | – | – | 10.48
303.15 K, x1 = 0.2503 | – | 30.81 | –
303.15 K, x1 = 0.2674 | – | – | 10.84
303.15 K, x1 = 0.2701 | – | – | 10.86
303.15 K, x1 = 0.2801 | – | – | 11.05
303.15 K, x1 = 0.29 | – | – | 11.21
303.15 K, x1 = 0.3003 | – | – | 11.25
303.15 K, x1 = 0.35 | – | – | 11.5
303.15 K, x1 = 0.3515 | – | 29.72 | –
303.15 K, x1 = 0.3997 | – | – | 11.47
303.15 K, x1 = 0.4018 | – | 29.34 | –
303.15 K, x1 = 0.433 | – | – | 11.12
303.15 K, x1 = 0.4995 | – | – | 10.24
303.15 K, x1 = 0.5038 | – | 29.22 | –
303.15 K, x1 = 0.5498 | – | – | 9.382
303.15 K, x1 = 0.5997 | – | – | 8.485
303.15 K, x1 = 0.608 | – | 28.83 | –
303.15 K, x1 = 0.6499 | – | – | 7.581
303.15 K, x1 = 0.7001 | – | – | 6.746
303.15 K, x1 = 0.712 | – | 28.65 | –
303.15 K, x1 = 0.7498 | – | – | 5.97
303.15 K, x1 = 0.7503 | – | 28.3 | –
303.15 K, x1 = 0.8 | – | – | 5.299
303.15 K, x1 = 0.8499 | – | – | 4.701
303.15 K, x1 = 0.8542 | – | 27.91 | –
303.15 K, x1 = 0.9 | – | – | 4.196
303.15 K, x1 = 0.95 | – | – | 3.742
303.15 K, x1 = 1 | – | 27.2 | 3.375
